# Where two headings read alike, the source gives them in different places.
# Key:
# [1] = Pharmacokinetics after repeated-dose intragastric administration in rats; type: in vivo, Sprague Dawley rats; conditions: for CL/F at 14 days / MRT at 14 days / CL/F at 28 days / MRT at 28 days / Tmax at 14 days / Cmax at 14 days / half-life at 14 days / Vd/F at 14 days / Cmax at 28 days / Tmax at 28 days / half-life at 28 days / Vd/F at 28 days / AUC(0-inf) / AUC: rat, plasma, po, R-IG 6.5 mg/kg; for Vd/F at 14 days / Vd/F at 28 days: read-out: Vss/F; for decrease of plasma exposure level compared with single administration / AUC(0-inf) / AUC: 6.5 mg/kg; for decrease of plasma exposure level compared with single administration: after 28 days of continuous administration; for plasma drug exposure level as % of the single dose: 28th day of intragastric administration; for AUC: read-out: AUC0-tn
# Procedure: Male and female rats were given HY-071085 (6.5 mg/kg) by gastric gavage twice a day for 28 days. […] After 28 days of continuous administration, the plasma exposure levels of the male and female rats decreased by 49% and 85%, respectively, compared with that after a single administration (Figure 6).
# (§1) In vivo PK profiling in the rats: Sprague Dawley rats (approximately 177–221 g in weight) were purchased from Shanghai Xipur-Bikai Experimental Animal Co., Ltd. (Shanghai, China). Before the experiment, several rats were randomly divided into several groups, half males and half females in each group, fasting but free to drink water for 12 h. The dosage of the rats was dependent on the drug pharmacology: the HY-071085 active pharmaceutical ingredients were administered with a dosage volume of 0.25 mL/100 g body weight. The whole-blood samples were centrifuged at 8000 rpm for 5 min, and the plasma samples were separated and stored at –80 °C until the analysis.
# (§2) According to the obtained plasma concentration time data, the pharmacokinetic parameters were calculated using Phoenix WinNonlin 8.1 software. The pharmacokinetic parameters—i.e., the area under the curve (AUC), mean residence time (MRT), clearance rate (Cl/F) and steady-state apparent distribution volume (Vss/F)—were calculated by the method of moments, which was estimated according to the following formulae: AUCtn=∑Ci+Ci−1ti−ti−1/2 AUC∞=AUCtn+Cm/λ AUMCtn=∑tiCi+ti−1Ci−1ti−ti−1/2 AUMC∞=AUMCtn+Ctntn/λ+1/λ^2 MRT=AUMC∞/AUC∞ Cl/F=Dose/AUC Vss/F=Cl∗MRT where Ctn is the plasma concentration of tn at the last point after administration, and the elimination rate constant was obtained by ln(concentration) time linear regression.
# (§3) Due to the drug having significant individual differences in rats, it could not be uniformly fitted with a PK atrioventricular model; as such, the pharmacokinetic parameters analyzed in this study were calculated using a non-atrioventricular model. The pharmacokinetic parameters are defined as follows: Cmax is the maximum blood concentration after administration and absorption, Tmax is the time required to reach Cmax, t1/2 is the time required to eliminate half of the plasma drug concentration after the drug distribution in the body reaches equilibrium, Cl/F is the apparent clearance rate, AUC0-tn is the area under the blood concentration time curve within the dosing interval, AUC0-∞ is the area under the plasma concentration time curve from 0 to infinity, MRT is the average time that all drug molecules stay in the body, and Vss/F is the steady-state apparent distribution volume, which is the product of the clearance rate and average residence time.
# [2] = Plasma protein binding, dog plasma; type: in vitro ADME; conditions: read-out: plasma protein binding rate (converted)
# Procedure: (§4) The PPB rate in dogs was about 40% at different concentrations in the concentration range (50–400 ng/mL), and in rats it was about 75%. The PPB rate in human plasma varied greatly at different concentrations, ranging from 100% at a low drug concentration to 58% at a high drug concentration, as shown in Table 4.
# [3] = Pharmacokinetics after single-dose intragastric administration in rats; type: in vivo, Sprague Dawley rats; conditions: for bioavailability / MRT / AUC / AUC(0-inf) / CL/F / Tmax / Cmax / half-life / Vd/F: rat, plasma; for bioavailability: 3.25 mg/kg intragastric vs intravenous, from AUCs, read-out: absolute oral bioavailability; for AUC: read-out: AUC0-tn; for Vd/F: read-out: Vss/F
# Procedure: Blood samples were collected from the fundus venous plexus at various times within 8 h after administration in order to analyze the concentration of HY-071085 in plasma.
# The profiles of the mean plasma concentration of HY-071085 versus time after a single dose in rats are presented in Figure 2 and Figure 3, and the PK parameters are listed in Table 1. […] At the three doses, the AUCtn ratios of the female rats and male rats were 3.5, 3.9 and 2.4, respectively. The AUCtn ratio among male rats was 1:5.16:41.06, and among female rats was 1:5.71:28.20.
# as §1, §2, §3
# [4] = parameters: method as in earlier work; conditions: Temp 25℃; cited from earlier work
# [5] = Plasma protein binding, rat plasma; type: in vitro ADME; conditions: read-out: plasma protein binding rate (converted)
# Procedure: as §4
# [6] = Sprague Dawley, female rats, 14 days
# [7] = Sprague Dawley, female rats, 28 days
# [8] = Sprague Dawley, male rats, 14 days
# [9] = Sprague Dawley, male rats, 28 days
# [10] = Sprague-Dawley, female rats, 14 days
# [11] = Sprague-Dawley, female rats, 28 days
# [12] = Sprague-Dawley, male rats, 14 days
# [13] = Sprague-Dawley, male rats, 28 days
# [14] = female, Sprague Dawley, female rats, 14 days
# [15] = female, Sprague Dawley, female rats, 28 days
# [16] = male, Sprague Dawley, male rats, 14 days
# [17] = male, Sprague Dawley, male rats, 28 days
# [18] = Sprague Dawley, po, female rats, S-IG 3.25 mg/kg
# [19] = Sprague Dawley, po, female rats, S-IG 6.5 mg/kg
# [20] = Sprague Dawley, po, female rats, S-IG 13 mg/kg
# [21] = Sprague Dawley, po, male rats, S-IG 3.25 mg/kg
# [22] = Sprague Dawley, po, male rats, S-IG 6.5 mg/kg
# [23] = Sprague Dawley, po, male rats, S-IG 13 mg/kg
# [24] = Sprague-Dawley, po, female rats, S-IG 3.25 mg/kg
# [25] = Sprague-Dawley, po, female rats, S-IG 6.5 mg/kg
# [26] = Sprague-Dawley, po, female rats, S-IG 13 mg/kg
# [27] = Sprague-Dawley, po, male rats, S-IG 3.25 mg/kg
# [28] = Sprague-Dawley, po, male rats, S-IG 6.5 mg/kg
# [29] = Sprague-Dawley, po, male rats, S-IG 13 mg/kg
smiles,measurement,setting,value
"CC1(C)OC2CC(=O)OCC23C1C/C(=N\OCCN1CCOCC1)C1(C)C3CC[C@@]2(C)[C@H](c3ccoc3)OC(=O)C3OC312 (stereo partly drawn) [HY-071085, (12S,12aS,E)-12-(furan-3-yl)-6,6,8a,12a-tetramethyl-8-((2-morpholinoethoxy)imino)dodecahydro-1H,3H-oxireno [2,3-d]pyrano [4’,3’:3,3a]isobenzofuro [5,4-f]isochromene-3,10(9aH)-dione]",CL/F at 14 days,[1]; [6],630 mL/min/kg
same,MRT at 14 days,[1]; [6],2.18 ± 0.27 h
same,CL/F at 28 days,[1]; [7],1730 mL/min/kg
same,MRT at 28 days,[1]; [7],2.54 ± 1.15 h
same,CL/F at 14 days,[1]; [8],836 mL/min/kg
same,Tmax at 14 days,[1]; [8],0.65 ± 0.38 h
same,CL/F at 28 days,[1]; [9],1860 mL/min/kg
same,MRT at 28 days,[1]; [9],1.74 ± 0.86 h
same,Cmax at 14 days,[1]; [10],125 ± 80.3 ng/mL
same,Tmax at 14 days,[1]; [10],0.68 ± 0.75 h
same,half-life at 14 days,[1]; [10],1.38 ± 0.24 h
same,Vd/F at 14 days,[1]; [10],80 ± 51 L/kg
same,Cmax at 28 days,[1]; [11],37.2 ± 19.9 ng/mL
same,Tmax at 28 days,[1]; [11],0.33 ± 0.16 h
same,half-life at 28 days,[1]; [11],1.75 ± 1.14 h
same,Vd/F at 28 days,[1]; [11],292 ± 251 L/kg
same,Cmax at 14 days,[1]; [12],63.2 ± 11.2 ng/mL
same,MRT at 14 days,[1]; [12],2.26 ± 0.33 h
same,half-life at 14 days,[1]; [12],1.52 ± 0.23 h
same,Vd/F at 14 days,[1]; [12],108 ± 13.8 L/kg
same,Cmax at 28 days,[1]; [13],38.9 ± 12.7 ng/mL
same,Tmax at 28 days,[1]; [13],0.6 ± 0.78 h
same,half-life at 28 days,[1]; [13],1.11 ± 0.41 h
same,Vd/F at 28 days,[1]; [13],169 ± 35.2 L/kg
same,decrease of plasma exposure level compared with single administration,[1]; female rats,85%
same,plasma drug exposure level as % of the single dose,[1]; female rats,about 15%
same,AUC(0-inf),[1]; [14],233 ± 159 ng·h/mL
same,AUC,[1]; [14],229 ± 159 ng·h/mL
same,AUC(0-inf),[1]; [15],70.2 ± 28.8 ng·h/mL
same,AUC,[1]; [15],65.8 ± 28.9 ng·h/mL
same,decrease of plasma exposure level compared with single administration,[1]; male rats,49%
same,plasma drug exposure level as % of the single dose,[1]; male rats,about 50%
same,AUC(0-inf),[1]; [16],133 ± 22.3 ng·h/mL
same,AUC,[1]; [16],127 ± 22.4 ng·h/mL
same,AUC(0-inf),[1]; [17],59.9 ± 10.5 ng·h/mL
same,AUC,[1]; [17],55 ± 8.82 ng·h/mL
same,fraction unbound at 50 ng/mL,"[2]; 50 ng/mL, mean",0.622
same,fraction unbound at 100 ng/mL,"[2]; 100 ng/mL, mean",0.671
same,fraction unbound at 200 ng/mL,"[2]; 200 ng/mL, mean",0.578
same,fraction unbound at 400 ng/mL,"[2]; 400 ng/mL, mean",0.545
same,fraction unbound,"[2]; dog, dogs, concentration range 50–400 ng/mL",~0.6
same,AUCtn ratio of female rats and male rats,[3]; S-IG 3.25 mg/kg,3.5
same,AUCtn ratio of female rats and male rats,[3]; S-IG 6.5 mg/kg,3.9
same,AUCtn ratio of female rats and male rats,[3]; S-IG 13 mg/kg,2.4
same,bioavailability,"[3]; Sprague Dawley, oral, male rats",2.83%
same,bioavailability,"[3]; Sprague Dawley, po, female rats",10.8%
same,MRT,[3]; [18],4.06 ± 0.82 h
same,AUC,[3]; [18],73.7 ± 25.3 ng·h/mL
same,AUC(0-inf),[3]; [19],429 ± 204 ng·h/mL
same,CL/F,[3]; [19],302 mL/min/kg
same,MRT,[3]; [19],2.57 ± 0.64 h
same,AUC,[3]; [19],421 ± 205 ng·h/mL
same,MRT,[3]; [20],2.29 ± 0.92 h
same,Tmax,[3]; [20],0.95 ± 0.51 h
same,AUC,[3]; [20],2080 ± 407 ng·h/mL
same,bioavailability,"[3]; Sprague Dawley, po, male rats",2.8%
same,MRT,[3]; [21],3.48 ± 1.98 h
same,AUC,[3]; [21],20.8 ± 3.01 ng·h/mL
same,AUC(0-inf),[3]; [22],125 ± 72.3 ng·h/mL
same,CL/F,[3]; [22],1180 mL/min/kg
same,MRT,[3]; [22],2.89 ± 1.87 h
same,AUC,[3]; [22],108 ± 54.2 ng·h/mL
same,MRT,[3]; [23],1.94 ± 0.39 h
same,AUC,[3]; [23],855 ± 290 ng·h/mL
same,Cmax,[3]; [24],20.4 ± 9.08 ng/mL
same,Tmax,[3]; [24],0.7 ± 0.73 h
same,half-life,[3]; [24],2.16 ± 1.13 h
same,Cmax,[3]; [25],145 ± 64.5 ng/mL
same,Tmax,[3]; [25],0.9 ± 0.68 h
same,half-life,[3]; [25],1.3 ± 0.36 h
same,Vd/F,[3]; [25],36.3 ± 23.2 L/kg
same,Cmax,[3]; [26],761 ± 322 ng/mL
same,half-life,[3]; [26],0.9 ± 0.42 h
same,Cmax,[3]; [27],11.3 ± 4.54 ng/mL
same,Tmax,[3]; [27],0.22 ± 0.04 h
same,half-life,[3]; [27],2.35 ± 1.27 h
same,Cmax,[3]; [28],107 ± 139 ng/mL
same,Tmax,[3]; [28],0.45 ± 0.59 h
same,half-life,[3]; [28],1.98 ± 1.04 h
same,Vd/F,[3]; [28],172 ± 70.3 L/kg
same,Cmax,[3]; [29],381 ± 152 ng/mL
same,Tmax,[3]; [29],0.85 ± 0.45 h
same,half-life,[3]; [29],1.21 ± 0.31 h
same,drug exposure of female rats relative to male rats,[3]; single-dose intragastric administration,about three times
same,logP,[4],2.8023
same,fraction unbound at 50 ng/mL,"[5]; 50 ng/mL, mean",0.261
same,fraction unbound at 100 ng/mL,"[5]; 100 ng/mL, mean",0.247
same,fraction unbound at 200 ng/mL,"[5]; 200 ng/mL, mean",0.228
same,fraction unbound at 400 ng/mL,"[5]; 400 ng/mL, mean",0.211
same,fraction unbound,"[5]; rat, rats, concentration range 50–400 ng/mL",~0.25
